# Test results reported in patent US20180153826A1, “MATERIALS AND METHODS FOR THE TREATMENT OF CYSTIC FIBROSIS” (UNIVERSITY OF FLORIDA RESEARCH FOUNDATION, INC., priority 2015, published 2018).
# What was measured:
# [1] = system: Cl^− secretion induced by forskolin; conditions: rat distal colon; cited from earlier work
# [2] = system: ENaC; test: ENaC activity as amiloride-sensitive bumetanide-insensitive Isc, weanling distal colon; design: species or system rat; conditions: 2.5% w/w added to diet vs normal 1%; 3 week old rats, distal colon
# Experimental: FIG. 17. The inhibitory effect of […] on ENaC was examined electrophysiologically by measuring amiloride-sensitive short-circuit current responses in the presence or absence of […]. Weanling infant distal colonic mucosa, which expresses highest activity of ENaC, is employed and mounted in Ussing chamber. FIGS. 19A-19C. […] Here, the activity of ENaC is measured as amiloride-sensitive bumetanide-insensitive Isc. […] FIGS. 20A-20C. […] The activity of ENaC was measured as amiloride-sensitive bumetanide-insensitive Isc. […] Secretory Cl current is mediated by apical CFTR. This Cl secretory Isc is sensitive to bumetanide, applied to the basolateral side of the epithelium. There, bumetanide inhibits Cl entry from blood into the cell; thus, in the presence of bumetanide, the secretory Cl current is eliminated. Absorptive Na current is mediated by apically located epithelial Na channel (ENaC). This latter current is particularly high in this weanling age and is sensitive to amiloride, when it is applied luminally.
# [3] = system: distal colonic mucosa; test: Lumen alkalinization response to [Ca^2+]o (lumen pH, Ussing chamber); design: species or system rat; conditions: for lumen alkalinization rate: mean±SE, n=3
# Experimental: Experiments were performed using non-fasting male Sprague-Dawley rats and C57BL/6 mice. Rats weighting 100-400 g were obtained from Charles River Laboratories. Mice lacking CaSR expression in intestinal epithelial cells (CaSR^−/−) and their CaSR^+/+ littermates were bred and maintained. CaSR^−/− mice were generated as previously described. Briefly, CaSR flox/flox mice were bred with transgenic mice expressing Cre Recombinase under the control of the villin 1 promoter and genotyped prior to all experiments after an approximate 10-12 generations. Mice were used at 5-10 weeks of age. Animals were fed and maintained on regular chow (Harlan) with free access to water before sacrifice. Animals were sacrificed with standard CO2 inhalation followed by cervical dislocation. The colons were isolated, cut open along the mesenteric border into a flat sheet, and flushed with ice-cold Ringer solutions. Mucosa from the distal colon were carefully hand-stripped off of serosal, muscular and submucosal layers as described and a pair of adjacent mucosal segments were incised and mounted into Ussing chambers. In some experiments, stripped mucosa was incised longitudinally into two equal pieces in order to facilitate comparisons between control and treatment. Short-circuit current and transepithelial resistance differences between these two adjacent tissues were less than 15%.
# (§1) Stripped mucosal sheets were mounted into Ussing chambers (window area=0.3-0.5 cm^2, Physiologic Instruments, San Diego, Calif.). The mucosal side of tissue was bathed with an unbuffered HCO3^−-free Cl^− Ringer solution (see Table 2 for detailed composition) circulated by a gas lift with 100% O2 while the serosal side was bathed with buffered Cl^− Ringer solution (pH 7.4) that contained 25 mM HCO3^− and gassed with 5% CO2/95% O2. Each side contained 3-5 ml of solution and the temperature of the solution was adjusted to and maintained at 37° C. by heated water-jacketed reservoirs. Experiments were performed under short-circuit conditions (Voltage-Current Clamp, VCC MC8; Physiologic Instruments, San Diego, Calif.) to maintain the transepithelial potentials at 0 mV, except for brief interruption at 20-second intervals for recording of open-circuit potential (VT, mV).
# (§2) Two types of approaches were used in the measurement of colonic HCO3^− secretion, namely, measurement of lumen pH or pH stat titration of net alkalinization by colonic mucosa. […] The amount of the acid delivered per unit time per surface area was used to quantitate HCO3^− secretion by the mucosa. Measurements were recorded continuously and mean values for consecutive 5 or 10 min periods were averaged. The rate of HCO3^− secretion (JHCO3) is expressed as μEq/hr/cm^2. The short-circuit current (Isc) was measured in microamperes (μA) and converted into μEq/hr/cm^2. Tissue resistance (R, Ω cm^2) was calculated from Ohm's law.
# Two equal pieces of mucosa from each colon that were obtained by longitudinal division along the antimessenteric border were mounted into two Ussing chambers. […] After 15 to 30 min, when stabilization was achieved and basal lumen pH recordings performed, HCO3^−-free Ringer solution in the serosal side was replaced by 25 mM HCO3-containing Ringer solution, and changes in lumen pH were monitored and recorded for 15 to 30 min. […]
# [4] = system: CFTR-mediated and non CFTR-mediated HCO3^− secretion; test: Isc and pH stat HCO3^− secretion with/without lumen Cl^−, CFTR inhibitors or DIDS (FIGS. 5, 6); conditions: R568 response
# Description: FIG. 3. Experimental approach 1: The Ussing chamber pH-stat set up used to monitor and measure HCO3^- secretion by colonic mucosa. FIG. 4. Experimental Approach 2: Measurement of HCO3^- secretion by colonic mucosa in the presence of apical NPPB/Glibenclamide. FIGS. 5A-5F. Activation of CaSR by […] inhibits CFTR-mediated HCO3^- secretion (JHCO3) and ISC but stimulates non CFTR-mediated HCO3^- secretion (JHCO3) and Isc. Physiological approach assayed with, versus without, lumen Cl^-. FIGS. 6A-6F. Activation of CaSR by […] inhibits CFTR-mediated HCO3^- secretion (JHCO3) and ISC but stimulates CFTR-independent HCO3^- secretion (JHCO3) and Isc. Pharmacological approach assayed with, and without, CFTR transporter inhibitors or AE inhibitor DIDS.
# [5] = system: Cl^−/HCO3^− exchange; test: Cl^−/HCO3^− exchange activity (Cl^−-dependent HCO3^− secretion); design: species or system rat; conditions: pretreatment, 100 μM, lumen side (data not shown)
# Experimental: as §1, with “Experiments were performed under short-circuit conditions (Voltage-Current Clamp, VCC MC8; Physiologic Instruments, San Diego, Calif.) to maintain the transepithelial potentials at 0 mV, except for brief interruption at 20-second intervals for recording of open-circuit potential (VT, mV).” left out
# as §2, with “law. […]” for “law.”
# [6] = system: cAMP-dependent HCO3^− secretion; test: Cyclic nucleotide (cAMP)-dependent HCO3^− secretion, lumen Cl^−/SCFA-free; design: species or system rat; conditions: luminal; glibenclamide 100 μM, GlyH-101 10 μM, NPPB 100 μM (data not shown)
# Experimental: Stripped mucosal sheets were mounted into Ussing chambers (window area=0.3-0.5 cm^2, Physiologic Instruments, San Diego, Calif.). The mucosal side of tissue was bathed with an unbuffered HCO3^--free Cl^- Ringer solution (see Table 2 for detailed composition) circulated by a gas lift with 100% O2 while the serosal side was bathed with buffered Cl^- Ringer solution (pH 7.4) that contained 25 mM HCO3^- and gassed with 5% CO2/95% O2. Each side contained 3-5 ml of solution and the temperature of the solution was adjusted to and maintained at 37° C. by heated water-jacketed reservoirs. Experiments were performed under short-circuit conditions (Voltage-Current Clamp, VCC MC8; Physiologic Instruments, San Diego, Calif.) to maintain the transepithelial potentials at 0 mV, except for brief interruption at 20-second intervals for recording of open-circuit potential (VT, mV). Two types of approaches were used in the measurement of colonic HCO3^- secretion, namely, measurement of lumen pH or pH stat titration of net alkalinization by colonic mucosa. […] Radiometer Analytical, Villeurbanne, France). The amount of the acid delivered per unit time per surface area was used to quantitate HCO3^- secretion by the mucosa. Measurements were recorded continuously and mean values for consecutive 5 or 10 min periods were averaged. […] The short-circuit current (Isc) was measured in microamperes (μA) and converted into μEq/hr/cm^2. Tissue resistance (R, Ω cm^2) was calculated from Ohm's law. Colon segments were prepared and treated as in the secretagogue-induced HCO3^- secretion experiments except that they were bathed luminally with HCO3^--free Ringer solution that contained no isobutyrate and no Cl^-. Cyclic nucleotide-dependent HCO3^- secretion was calculated as […] (the difference between JHCO3 after minus JHCO3 before the addition of forskolin). When inhibitor was used, it was added at 30 min before […] or forskolin.
smiles,measurement,setting,value
CCCCNc1cc(C(=O)O)cc(S(N)(=O)=O)c1Oc1ccccc1 [Bumetanide],inhibition of forskolin-induced Cl^− secretion,[1],~70%
[Ca+2] [Ca^2+],amiloride-sensitive ENaC-mediated basal Isc,[2],suppressed
same,basal Isc,[3]; 0.5 mM [Ca^2+]o,1.44±0.32 μEq/hr/cm^2
same,basal Isc,[3]; 1.2 mM [Ca^2+]o,1.10±0.10 μEq/hr/cm^2
same,lumen alkalinization rate,[3]; [Ca^2+]o = 0.5 mM,0.013±0.002 pH unit/min/cm^2
same,lumen alkalinization rate,[3]; [Ca^2+]o = 1.2 mM,0.031±0.002 pH unit/min/cm^2
C[N+](C)(C)CCOC(N)=O [Carbachol],lumen pH response,"[3]; 100 μM, serosa, positive control",initial transient increase followed by a sustained increase in lumen pH
"O=S(=O)(O)c1cc(N=C=S)ccc1C=Cc1ccc(N=C=S)cc1S(=O)(=O)O [DIDS, 4,4′-diisothiocyano-2,2′-stilbenedisulfonic acid]",AE-associated current,[4]; FIG. 6C vs. 6A,partially inhibited
same,CFTR activity (current),[4]; FIG. 6C vs. 6A,inhibited
same,HCO3^− secretion rate,[4]; FIG. 6F with 6D,stimulated or did not change
same,luminal Cl^−-dependent HCO3^− secretory mechanism,[5],partially abolished
O=C(CNc1ccc2ccccc2c1)N/N=C/c1cc(Br)c(O)c(Br)c1O [GlyH-101],effect of pretreatment on forskolin stimulatory and R568 inhibitory effects on Isc,[6],abolished
"O=C(O)c1cc([N+](=O)[O-])ccc1NCCCc1ccccc1 [NPPB, 5-nitro-2-(3-phenylpropylamino)benzoic acid]",effect of pretreatment on forskolin stimulatory and R568 inhibitory effects on Isc,[6],abolished
COc1ccc(Cl)cc1C(=O)NCCc1ccc(S(=O)(=O)NC(=O)NC2CCCCC2)cc1 [glibenclamide],effect of pretreatment on forskolin stimulatory and R568 inhibitory effects on Isc,[6],abolished
